The record followed here is ChEMBL document CHEMBL5050844 (2019).

The structures appear in SMILES notation.

Assay [1] is described as follows: Induction of anti-CD3/CD28 antibodies-stimulated human T cell activation at 1 uM assessed fold increase in CD25 expression measured by ELISA assay. In kind it is functional, T cell line. In general terms: In an ELISA, binding on a coated surface is turned into a signal by an enzyme label.
The nature of assay [2]: Induction of anti-CD3 antibodies-stimulated human T cell activation at 1 uM assessed fold increase in CD25 expression measured by ELISA assay. Further: reference of the scale not given here. The assay is classed as functional, T cell line.
Assay [3] is described as follows: Induction of anti-CD3 antibodies-stimulated human T cell activation at 1 uM assessed fold increase in IL-2 secretion measured by ELISA assay. Further: reference of the scale not given here. The assay is classed as functional, T cell line.
Assay [4] is described as follows: Induction of anti-CD3/CD28 antibodies-stimulated human T cell activation at 0.3 uM assessed fold increase in IL-2 secretion measured by ELISA assay. In kind it is functional, T cell line.
Assay [5] can be described thus: Induction of anti-CD3/CD28 antibodies-stimulated human T cell activation at 1 uM assessed fold increase in IL-2 secretion measured by ELISA assay. In kind it is functional, T cell line.
Assay [6] has as its target E3 ubiquitin-protein ligase CBL-B (Homo sapiens, UniProt Q13191). Briefly: Inhibition of N-terminal Avi-tagged human CBL-B (36 to 427 residues) incubated with 60 nM Src kinase for 1.5 hrs followed by incubation with fluorescently labeled UbcH5B-Ub for 1 hr and measured by TR-FRET assay. The assay is classed as single protein. (Time-resolved FRET reads energy transfer from a long-lived donor to a nearby acceptor.)

Assay [7] can be described thus: Induction of anti-CD3/CD28 antibodies-stimulated human T cell activation at 0.3 uM assessed fold increase in CD25 expression measured by ELISA assay. In kind it is functional, T cell line.

Chain of E3 ubiquitin-protein ligase CBL-B (Q13191 whole entry, the tested form may be a part): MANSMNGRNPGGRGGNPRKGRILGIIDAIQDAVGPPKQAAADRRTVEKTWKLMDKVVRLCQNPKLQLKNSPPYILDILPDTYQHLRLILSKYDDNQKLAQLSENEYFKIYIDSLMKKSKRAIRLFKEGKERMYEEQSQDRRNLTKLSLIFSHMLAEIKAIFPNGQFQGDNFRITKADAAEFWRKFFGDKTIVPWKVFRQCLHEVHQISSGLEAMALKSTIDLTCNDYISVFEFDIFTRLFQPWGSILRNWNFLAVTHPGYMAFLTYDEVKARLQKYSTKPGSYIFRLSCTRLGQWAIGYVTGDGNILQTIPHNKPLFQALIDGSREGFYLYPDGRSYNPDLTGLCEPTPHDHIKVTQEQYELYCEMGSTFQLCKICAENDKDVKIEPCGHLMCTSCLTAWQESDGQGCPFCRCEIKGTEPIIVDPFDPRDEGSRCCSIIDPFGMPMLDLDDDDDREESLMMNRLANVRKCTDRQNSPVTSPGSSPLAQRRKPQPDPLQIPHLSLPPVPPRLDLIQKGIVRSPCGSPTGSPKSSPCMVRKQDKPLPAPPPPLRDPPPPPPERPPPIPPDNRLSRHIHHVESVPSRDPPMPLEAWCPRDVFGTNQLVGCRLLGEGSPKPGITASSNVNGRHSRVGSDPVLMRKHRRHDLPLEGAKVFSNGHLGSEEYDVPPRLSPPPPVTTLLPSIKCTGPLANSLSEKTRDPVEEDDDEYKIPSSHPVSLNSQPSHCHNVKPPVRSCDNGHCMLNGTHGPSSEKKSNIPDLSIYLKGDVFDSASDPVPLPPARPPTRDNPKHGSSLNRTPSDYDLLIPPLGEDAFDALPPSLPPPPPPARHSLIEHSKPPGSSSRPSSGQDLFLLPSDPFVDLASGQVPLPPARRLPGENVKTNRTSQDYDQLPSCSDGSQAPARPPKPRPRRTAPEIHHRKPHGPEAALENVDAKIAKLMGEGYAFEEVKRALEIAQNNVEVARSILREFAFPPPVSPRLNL

With `Cn1cnnc1CC1(c2cccc(N3Cc4c(cc(C5CN6CCC5CC6)cc4C(F)(F)F)C3=O)c2)COC1` (centres undefined), the “fold change (FC)” value in assay [1] was 1.01; in assay [2], 0.601; in assay [3] it was “<=0.05”; in assay [4] it was 2.51; in assay [5], 5; in assay [7], 1.01. For the same compound, the IC50 (in general, the concentration at which inhibition is half-maximal) in assay [6] is below 100 nM.

Consider `Cn1cnnc1CC1(c2cccc(N3Cc4c(cc(OC5CC5)cc4C(F)(F)F)C3=O)c2)COC1`, for which the “fold change (FC)” value is reported as 1.01 in assay [1]; “>=1.001” in assay [2]; 0.151 in assay [3]; 1.01 in assay [4]; 2.51 in assay [5]; 1.01 in assay [7]. Besides, the IC50 in assay [6] was below 100 nM.

As to `C[C@@H](c1cc2c(c(C(F)(F)F)c1)CN(c1cccc(C3(C(F)(F)c4nncn4C)COC3)c1)C2=O)N1CC[C@H](F)C1`, the “fold change (FC)” value is 1.51 in assay [1]; “>=1.001” in assay [2]; “>=0.201” in assay [3]; 2.51 in assay [4]; “>=7.5” in assay [5]; 1.31 in assay [7]. Besides, the half-maximal inhibitory concentration (IC50) in assay [6] is below 100 nM.

As for `CN1C[C@H]2CC[C@@H](C1)N2c1cc(C(=O)Nc2cccc(C3(Cc4nncn4C)COC3)c2)nc(C2CC2)n1`, the “fold change (FC)” value in assay [1] is 1.51; in assay [2] it was “>=1.001”; in assay [3], “>=0.201”; in assay [4], 5; in assay [5], “>=7.5”; in assay [7] it was 1.31. The compound further gave an IC50 in assay [6] below 100 nM.

Take `Cn1cnnc1C(F)(F)[C@](C)(F)c1cccc(NC(=O)c2cc(CN3CC[C@H](F)C3)nc(C3CC3)n2)c1`: the “fold change (FC)” value in assay [1] is recorded as 1.01; in assay [2], 0.801; in assay [3], 0.051; in assay [4], 2.51; in assay [5] it was 5; in assay [7], 1.01. The IC50 in assay [6] is below 100 nM.

With `Cn1cnnc1CC1(c2cccc(N3Cc4c(cc(N5CCOCC5)cc4C(F)(F)F)C3=O)c2)COC1`, the “fold change (FC)” value in assay [1] is reported as 1.51; in assay [2], “>=1.001”; in assay [3] it was 0.101; in assay [4], 5; in assay [5], “>=7.5”; in assay [7], 1.31. In assay [6], this compound registered an IC50 below 100 nM.

For the compound `Cn1cnnc1[C@@H](F)C1(c2cccc(N3Cc4c(cc(CN5C6CCCC5CC6)cc4C(F)(F)F)C3=O)c2)COC1` (stereo in doubt; 671a), the “fold change (FC)” value is recorded as “>=1.76” in assay [1] (1 µM); 0.601 in assay [2] (1 µM); “>=0.201” in assay [3] (1 µM); 2.51 in assay [4]; 5 in assay [5]; 1.51 in assay [7] (0.3 µM). The same compound came in with an IC50 in assay [6] below 100 nM.

`C[C@@H](c1cc2c(c(C(F)(F)F)c1)CN(c1cccc(C3(Cc4nncn4C)COC3)c1)C2=O)N1CCC2(CC1)CC2`: the “fold change (FC)” value is listed as 1.01 in assay [1]; “>=1.001” in assay [2]; “>=0.201” in assay [3]; “>=7.5” in assay [4]; “>=7.5” in assay [5]; 1.01 in assay [7]. The compound also displayed an IC50 in assay [6] below 100 nM.

As for `Cc1conc1CC1(c2cccc(NC(=O)c3cc(CN4CCC5(CC5)C4)nc(C4CC4)n3)c2)COC1`, the “fold change (FC)” value in assay [1] is reported as 1.31; in assay [2], “>=1.001”; in assay [3], “>=0.201”; in assay [4], “>=7.5”; in assay [5], “>=7.5”; in assay [7], 1.31. Besides, the IC50 in assay [6] was below 100 nM.

With `Cn1cnnc1CC1(c2cccc(N3Cc4c(cc(CN5CC[C@@H]6C[C@@H]65)cc4C(F)(F)F)C3=O)c2)COC1`, the “fold change (FC)” value in assay [1] is reported as 1.51; in assay [2], “>=1.001”; in assay [3], “>=0.201”; in assay [4], “>=7.5”; in assay [5], “>=7.5”; in assay [7], 1.51. In assay [6], the 50% inhibitory concentration (IC50) is below 100 nM.

Turning to `C[C@@H](c1cc2c(c(C(F)(F)F)c1)CN(c1cccc(C3(Cc4nncn4C)COC3)c1)C2=O)N1CC(F)C1`, the “fold change (FC)” value in assay [1] is on record as 1.51; in assay [2] it was “>=1.001”; in assay [3] it was 0.151; in assay [4], 5; in assay [5], “>=7.5”; in assay [7] it was 1.31. Further, the IC50 in assay [6] is below 100 nM.

Regarding `Cn1cnnc1CC1(c2cccc(NC(=O)c3cc(CN4CC[C@H](O)C4)nc(C4CC4)n3)c2)COC1`, the “fold change (FC)” value in assay [1] turned out to be 1.01; in assay [2], 0.601; in assay [3], 0.051; in assay [4], 1.01; in assay [5], 2.51; in assay [7], 1.01. This compound also yielded an IC50 in assay [6] below 100 nM.

For `Cn1cnnc1CC1(c2cccc(N3Cc4c(cc(N5CC(C(F)F)C5)nc4C4CC4)C3=O)c2)COC1`, the “fold change (FC)” value in assay [1] worked out at 1.01; in assay [2], 0.801; in assay [3], 0.101; in assay [4], 2.51; in assay [5], 5; in assay [7], 1.01. The same compound gave an IC50 in assay [6] below 100 nM.

As for `Cn1cnnc1CC1(c2cccc(N3Cc4c(cc(CN5Cc6ccc(F)cc6C5)cc4C(F)(F)F)C3=O)c2)COC1`, the “fold change (FC)” value in assay [1] is 1.31; in assay [2], “>=1.001”; in assay [3] it was “>=0.201”; in assay [4], 5; in assay [5], “>=7.5”; in assay [7] it was 1.31. In assay [6], this compound came in with a half-inhibitory concentration (IC50) below 100 nM.

On to `Cc1cc(C(=O)Nc2cccc(C(C)(C)Cc3nncn3C)c2)nc(C2CC2)n1`, for which the “fold change (FC)” value in assay [1] was 1.31; in assay [2] it was 0.801; in assay [3], 0.101; in assay [4], 5; in assay [5] it was “>=7.5”; in assay [7], 1.31. For the same compound, the half-maximal inhibitory concentration (IC50) in assay [6] is below 100 nM.

On to `Cn1cnnc1CC1(c2cccc(N3Cc4c(cc(C5=CCCOC5)cc4C(F)(F)F)C3=O)c2)COC1`, for which the FC in assay [1] is 1.01; in assay [2], 0.801; in assay [3], 0.101; in assay [4], 2.51; in assay [5], 2.51; in assay [7] it was 1.01. This compound displayed an IC50 in assay [6] below 100 nM.

For `CC(c1cc2c(c(C3CC3)n1)CN(c1cccc(C3(Cc4nncn4C)COC3)c1)C2=O)N1CC2(CC2)C1` (centres undefined), the “fold change (FC)” value in assay [1] is 1.01; in assay [2] it was 0.601; in assay [3] it was “<=0.05”; in assay [4] it was 1.01; in assay [5], 2.51; in assay [7], 1.01. In assay [6], this compound had a concentration for half-maximal inhibition (IC50) below 100 nM.

Turning to `Cc1cc(C(=O)Nc2cccc(C3([C@H](F)c4nncn4C)COC3)c2)nc(C2CC2)n1`, the “fold change (FC)” value in assay [1] is 1.01; in assay [2], “>=1.001”; in assay [3] it was 0.151; in assay [4], 2.51; in assay [5], 5; in assay [7], 1.01. In addition, the IC50 in assay [6] was below 100 nM.

Consider `COC1CCN(Cc2cc3c(c(C(F)(F)F)c2)CN(c2cccc(C4(Cc5nncn5C)COC4)c2)C3=O)CC1`, for which the “fold change (FC)” value is given as 1.51 in assay [1]; “>=1.001” in assay [2]; “>=0.201” in assay [3]; “>=7.5” in assay [4]; “>=7.5” in assay [5]; 1.31 in assay [7]. The compound also had an IC50 in assay [6] below 100 nM.

Consider `CN1CCN(c2cc3c(c(C(F)(F)F)c2)CN(c2cccc(C4(Cc5nncn5C)COC4)c2)C3=O)C(=O)C1`, for which the “fold change (FC)” value in assay [1] stood at 1.01; in assay [2] it was 0.801; in assay [3] it was 0.051; in assay [4], 1.01; in assay [5] it was 1.01; in assay [7], 1.01. For the same compound, the 50% inhibitory concentration (IC50) in assay [6] was below 100 nM.

In the case of `Cn1cnnc1CC1(c2cccc(N3Cc4c(cc(CN5CCC6(CC6)C(F)(F)C5)cc4C(F)(F)F)C3=O)c2)COC1`, the “fold change (FC)” value in assay [1] is on record as 1.31; in assay [2], “>=1.001”; in assay [3], “>=0.201”; in assay [4], 2.51; in assay [5], “>=7.5”; in assay [7], 1.31. This compound gave an IC50 in assay [6] below 100 nM.

Regarding `C[C@H](c1cc2c(c(C(F)(F)F)c1)CN(c1cccc(C3(Cc4nncn4C)COC3)c1)C2=O)N1CC(F)C1`, the “fold change (FC)” value is recorded as 1.51 in assay [1]; “>=1.001” in assay [2]; 0.101 in assay [3]; 2.51 in assay [4]; 5 in assay [5]; 1.31 in assay [7]. In assay [6], this compound returned an IC50 below 100 nM.
